From patent US20110319626A1 (BRADFORD PHARMA LIMITED, priority 2009, published 2011)

These molecules were tested against T1, HMG-CoA reductase (Homo sapiens, UniProt P04035) (assay: HMG-CoA Reductase assay kit (spectrophotometric NADPH absorbance at 340 nm)). Conditions: NADPH and HMG-CoA both 200 μM, inhibitor concentrations varied from 0 nM to 50 nM, 37° C.
T1 construct: oxidation of NADPH by the catalytic subunit of HMGR in the presence of the substrate HMG-CoA; purchased Sigma-Aldrich CS1090 (kit); H8789 (HMG-CoA reductase)
T1 sequence (P04035 340-888 limits assumed): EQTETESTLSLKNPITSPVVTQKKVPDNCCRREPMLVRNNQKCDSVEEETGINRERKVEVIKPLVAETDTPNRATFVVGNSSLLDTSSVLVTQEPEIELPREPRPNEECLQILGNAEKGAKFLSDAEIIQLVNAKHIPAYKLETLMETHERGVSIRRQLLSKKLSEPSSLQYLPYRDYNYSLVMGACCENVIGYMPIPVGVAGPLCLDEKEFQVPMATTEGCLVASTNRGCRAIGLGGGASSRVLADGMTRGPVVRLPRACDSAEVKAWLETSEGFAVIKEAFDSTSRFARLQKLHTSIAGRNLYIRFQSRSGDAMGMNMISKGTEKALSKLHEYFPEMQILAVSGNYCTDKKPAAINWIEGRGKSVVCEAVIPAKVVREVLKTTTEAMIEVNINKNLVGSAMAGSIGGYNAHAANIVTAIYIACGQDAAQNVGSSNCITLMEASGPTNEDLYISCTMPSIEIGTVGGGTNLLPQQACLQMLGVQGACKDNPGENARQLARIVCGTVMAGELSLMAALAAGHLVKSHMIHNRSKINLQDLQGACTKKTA
Assay type: biochemical
Method: All assays were carried out in a reaction buffer containing […] KxPO4 at pH 7.2, 1 mM EDTA, 500 mM KCl and 1 mg/ml BSA. The concentrations of NADPH and HMG-CoA were both 200 μM. […] Absorbance readings were then taken every 20 seconds for 600 seconds. […] After these were identified, assays were carried out varying their concentrations from 0 nM to 50 nM allowing IC50 values to be calculated.
This is illustrated in the following reaction scheme:
HMG-CoA+2NADPH+2H^+→mevalonate+2NADP^++CoA-SH
Add a buffer to all samples. • b. […] Add the reconstituted NADPH to all samples. • d. Add Substrate Solution (HMG-CoA) to all samples. • e. […] Mix the samples thoroughly.
3. The kinetics programme was started immediately.

SMILES | IC50 [nM]
CC(C)c1c(C(=O)Nc2ccccc2)c(-c2ccccc2)c(-c2ccc(F)cc2)n1CC[C@@H]1C[C@@H](O)CC(=O)O1 | 3
COC1C[C@H](OC(=O)c2cccnc2)C[C@@H](CCn2c(-c3ccc(F)cc3)c(-c3ccccc3)c(C(=O)Nc3ccccc3)c2C(C)C)O1 (some centres unmarked) | < 1
CCCOC1C[C@H](O)C[C@@H](CCn2c(-c3ccc(F)cc3)c(-c3ccccc3)c(C(=O)Nc3ccccc3)c2C(C)C)O1 (some centres unmarked) | < 1
CC(C)c1c(C(=O)Nc2ccccc2)c(-c2ccccc2)c(-c2ccc(F)cc2)n1CC[C@@H]1C[C@@H](O)CC(OC2CCCCC2)O1 (some centres unmarked) | < 1
CC(C)OC1C[C@H](OCc2ccccc2)C[C@@H](CCn2c(-c3ccc(F)cc3)c(-c3ccccc3)c(C(=O)Nc3ccccc3)c2C(C)C)O1 (some centres unmarked) | 4
CC(C)c1c(C(=O)Nc2ccccc2)c(-c2ccccc2)c(-c2ccc(F)cc2)n1CC[C@@H]1C[C@@H](OCc2ccccc2)CC(OC(C)(C)C)O1 (some centres unmarked) | 3
C=CCOC1C[C@H](OCc2ccccc2)C[C@@H](CCn2c(-c3ccc(F)cc3)c(-c3ccccc3)c(C(=O)Nc3ccccc3)c2C(C)C)O1 (some centres unmarked) | 1
COc1ccc(OC2C[C@H](O)C[C@@H](CCn3c(-c4ccc(F)cc4)c(-c4ccccc4)c(C(=O)Nc4ccccc4)c3C(C)C)O2)c(OC)c1 (some centres unmarked) | < 1
